Test results: publication PMC5911580, “YL143, a novel mutant selective irreversible EGFR inhibitor, overcomes EGFR^L858R, T790M‐mutant resistance in vitro and in vivo” (Cancer Medicine, 2018)
Entries after “also recorded” stand apart in the source; their conditions may differ.

Legend:
IGF1R = IGF1R (Homo sapiens, UniProt P08069); assay: FRET-based Z'-Lyte kinase assay, IGF1R; assay type: biochemical; settings: AV ± SD; 1.5 h incubation
Protocol: (§1) The kinase activity assay was performed and optimized according to the instructions of Z’‐LYTE™ kinase assay kits from the manufacturer (PV4879, Life, America). In our experiments, 10 concentration gradients from 0.01 nmol/L to 1.0 μmol/L were used for all the compounds.

[1] = system: HCC827 (EGFR^del 19) cells; assay: CCK-8 cell growth assay, HCC827; assay type: cell-based; settings: Homo sapiens, HCC827; CCK-8, 72 h; AV ± SD; read-out: antiproliferative IC50 HCC827
Protocol: (§2) Cells were seeded into 96‐well plates at a density of 1500~3000/well in complete medium overnight. Then, cells were treated with various concentrations (0.01~1000 nmol/L) of YL143 for additional 3 days. Viable cell numbers were determined by Cell Counting Kit 8 (CCK8, CK04, Dojindo Laboratories, Japan). Each assay consisted of three replicate wells and repeated at least three times. […] Each IC50 value was expressed as mean ± SD.

A549 (EGFR^WT) cells = assay: CCK-8 cell growth assay, A549; assay type: cell-based; settings: Homo sapiens, A549; CCK-8, 72 h; read-out: antiproliferative IC50 A549
Protocol: as §2

CSF1R = CSF1R (Homo sapiens, UniProt P07333); assay: Z'-Lyte kinase panel, CSF1R; assay type: biochemical; settings: 1.5 hrs incubation
Chain of CSF1R (P07333 20-972, species assumed): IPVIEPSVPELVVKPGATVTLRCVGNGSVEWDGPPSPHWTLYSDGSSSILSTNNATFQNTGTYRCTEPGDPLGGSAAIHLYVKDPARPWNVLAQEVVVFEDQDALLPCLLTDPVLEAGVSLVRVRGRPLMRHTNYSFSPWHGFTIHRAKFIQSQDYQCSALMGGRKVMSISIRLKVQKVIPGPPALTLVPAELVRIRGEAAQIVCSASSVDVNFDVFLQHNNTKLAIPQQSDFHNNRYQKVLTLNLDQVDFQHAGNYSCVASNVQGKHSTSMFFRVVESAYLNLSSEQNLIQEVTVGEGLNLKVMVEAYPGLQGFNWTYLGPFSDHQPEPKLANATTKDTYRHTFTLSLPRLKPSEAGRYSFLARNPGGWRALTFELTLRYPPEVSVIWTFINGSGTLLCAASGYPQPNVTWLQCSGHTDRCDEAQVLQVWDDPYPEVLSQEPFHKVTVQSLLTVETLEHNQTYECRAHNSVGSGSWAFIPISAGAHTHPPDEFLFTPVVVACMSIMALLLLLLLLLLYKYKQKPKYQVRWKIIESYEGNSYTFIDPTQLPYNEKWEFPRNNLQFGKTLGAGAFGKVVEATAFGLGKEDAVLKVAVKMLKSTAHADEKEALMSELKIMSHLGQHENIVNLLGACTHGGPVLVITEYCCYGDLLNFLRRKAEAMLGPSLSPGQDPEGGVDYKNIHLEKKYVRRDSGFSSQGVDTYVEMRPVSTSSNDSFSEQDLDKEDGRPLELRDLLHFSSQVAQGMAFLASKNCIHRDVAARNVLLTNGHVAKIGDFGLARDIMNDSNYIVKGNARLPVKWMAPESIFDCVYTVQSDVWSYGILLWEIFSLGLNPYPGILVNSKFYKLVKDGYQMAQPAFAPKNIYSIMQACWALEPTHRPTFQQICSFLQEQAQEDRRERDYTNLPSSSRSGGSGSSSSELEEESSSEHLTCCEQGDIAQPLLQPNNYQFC
Protocol: (§3) Kinase activity assays were performed using the FRET-based Z′-Lyte assay according to the manufacturer’s instructions. The compounds were incubated with the kinase reaction mixture for 1.5 hrs before measurement. The data are means from two independent experiments and the variations are below 20%.

TRKA = TRKA (Homo sapiens, UniProt P04629); assay: Z'-Lyte kinase panel, TRKA; assay type: biochemical; settings: 1.5 hrs incubation
Chain of TRKA (P04629 33-796, species assumed): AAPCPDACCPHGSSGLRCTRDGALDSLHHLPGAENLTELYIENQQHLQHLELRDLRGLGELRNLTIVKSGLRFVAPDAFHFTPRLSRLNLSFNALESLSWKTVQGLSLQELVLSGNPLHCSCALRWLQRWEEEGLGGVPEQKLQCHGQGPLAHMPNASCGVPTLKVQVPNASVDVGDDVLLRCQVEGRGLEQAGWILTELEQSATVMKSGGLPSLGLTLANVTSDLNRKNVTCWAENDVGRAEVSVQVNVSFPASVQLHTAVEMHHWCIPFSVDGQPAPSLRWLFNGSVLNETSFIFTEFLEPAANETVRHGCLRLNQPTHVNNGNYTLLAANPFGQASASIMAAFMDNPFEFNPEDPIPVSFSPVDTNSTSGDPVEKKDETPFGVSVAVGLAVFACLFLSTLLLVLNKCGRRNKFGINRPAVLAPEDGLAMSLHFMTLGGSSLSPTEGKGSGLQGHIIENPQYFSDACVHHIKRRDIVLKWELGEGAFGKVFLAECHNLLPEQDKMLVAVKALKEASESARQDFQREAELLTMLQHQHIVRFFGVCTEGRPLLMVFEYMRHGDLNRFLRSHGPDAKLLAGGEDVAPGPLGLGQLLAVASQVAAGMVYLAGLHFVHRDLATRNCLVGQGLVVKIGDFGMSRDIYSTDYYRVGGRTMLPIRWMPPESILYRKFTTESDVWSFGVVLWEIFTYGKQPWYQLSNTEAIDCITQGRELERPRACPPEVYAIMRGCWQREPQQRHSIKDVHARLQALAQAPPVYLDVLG
Protocol: as §3

H1975 xenograft = assay: H1975 tumor xenograft in CB17-SCID mice; assay type: in vivo; settings: 30 mg/kg, po, qd
Protocol: Male CB17‐SCID mice were purchased from Vital River Laboratory Animal Technology Inc. (Beijing, China). H1975 cells (5 × 10^6/mouse) were injected subcutaneously in the right flanks of mice. […] All the compounds were suspended in 0.5% CMC‐Na aqueous solution. The tumor volume and body weight of animals were measured once every 2 days. Tumor volume was calculated as the L × W ^2/2 (L and W are the length and width of the tumor, respectively). All animal experiments were approved by the Institutional Animal Use and Care Committee of Guangzhou Institute of Biomedicine and Health, Chinese Academy of Science.

[2] = system: phosphorylation of EGFR and Erk in H1975 cells; assay: Western blot of EGFR signaling in H1975 cells; assay type: cell-based, human; settings: 4 h
Protocol: Cells were treated with various concentrations of compound for designed time. Then, cells were lysed using 1 × SDS sample lysis buffer (CST recommended) with protease and phosphatase inhibitors. Cell lysates were loaded and electrophoresed onto 8–12% SDS‐PAGE gel, and then, separated proteins were transferred to a PVDF film. The film was blocked with 5% fat‐free milk in TBS solution containing 0.5% Tween‐20 for 4 h at room temperature and then incubated with corresponding primary antibody (1:1000–1:200) overnight at 4°C. After washing with TBST, HRP‐conjugated secondary antibody was incubated for 2 h. And the protein signals were visualized by ECL Western Blotting Detection Kit (Thermo Scientific, Waltham, MA) and detected with Amersham Imager 600 system (GE, America).
Cells were treated with or without compound YL143 for 4 h at indicated concentration, respectively. Cells were harvested for Western blot analysis. […] NCI‐H1975 cells were treated with or without compound YL143(100 nmol/L) for 4 h, and then the medium with compound was removed and fresh medium was added. At the indicated time points, cells were harvest and proteins were extracted and subjected to Western blot analysis.

EGFR^L858R/T790M = EGFR^L858R/T790M (Homo sapiens, UniProt P00533, L858R/T790M); assay: FRET-based Z'-Lyte kinase assay, EGFR L858R/T790M; assay type: biochemical; parameters: purchased Invitrogen
Chain of EGFR^L858R/T790M (P00533 25-1210 T790M/L858R): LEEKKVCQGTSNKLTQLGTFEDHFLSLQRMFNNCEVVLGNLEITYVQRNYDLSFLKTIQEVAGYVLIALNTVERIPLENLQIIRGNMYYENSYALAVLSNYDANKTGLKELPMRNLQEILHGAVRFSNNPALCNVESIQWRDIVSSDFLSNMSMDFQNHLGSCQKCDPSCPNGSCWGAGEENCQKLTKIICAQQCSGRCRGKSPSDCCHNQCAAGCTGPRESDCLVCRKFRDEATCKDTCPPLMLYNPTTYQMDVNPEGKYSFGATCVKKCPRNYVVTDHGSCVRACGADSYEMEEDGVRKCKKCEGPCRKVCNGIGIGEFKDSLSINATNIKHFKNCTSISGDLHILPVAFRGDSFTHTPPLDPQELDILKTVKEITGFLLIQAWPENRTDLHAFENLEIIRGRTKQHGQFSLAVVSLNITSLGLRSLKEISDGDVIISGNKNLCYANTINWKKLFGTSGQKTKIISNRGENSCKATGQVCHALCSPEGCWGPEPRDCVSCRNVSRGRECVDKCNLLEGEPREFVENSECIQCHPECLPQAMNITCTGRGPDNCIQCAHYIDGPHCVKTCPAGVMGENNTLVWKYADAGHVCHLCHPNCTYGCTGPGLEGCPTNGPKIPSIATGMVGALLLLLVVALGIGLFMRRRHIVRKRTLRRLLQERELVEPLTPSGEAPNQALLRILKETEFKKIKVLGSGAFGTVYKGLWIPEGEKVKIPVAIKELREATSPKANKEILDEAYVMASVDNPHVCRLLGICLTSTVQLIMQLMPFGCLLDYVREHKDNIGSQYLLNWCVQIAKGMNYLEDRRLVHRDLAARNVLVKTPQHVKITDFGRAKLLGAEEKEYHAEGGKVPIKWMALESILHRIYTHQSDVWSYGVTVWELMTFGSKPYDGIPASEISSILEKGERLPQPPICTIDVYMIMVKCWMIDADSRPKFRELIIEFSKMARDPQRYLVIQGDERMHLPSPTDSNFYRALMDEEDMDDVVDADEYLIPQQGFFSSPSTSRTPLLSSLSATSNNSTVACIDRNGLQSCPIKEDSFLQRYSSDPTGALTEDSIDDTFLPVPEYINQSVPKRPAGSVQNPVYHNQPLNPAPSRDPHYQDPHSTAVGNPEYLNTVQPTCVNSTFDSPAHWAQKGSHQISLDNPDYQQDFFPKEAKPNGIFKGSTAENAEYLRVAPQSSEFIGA
Protocol: as §1

Chain of IGF1R (P08069 31-1367, species assumed): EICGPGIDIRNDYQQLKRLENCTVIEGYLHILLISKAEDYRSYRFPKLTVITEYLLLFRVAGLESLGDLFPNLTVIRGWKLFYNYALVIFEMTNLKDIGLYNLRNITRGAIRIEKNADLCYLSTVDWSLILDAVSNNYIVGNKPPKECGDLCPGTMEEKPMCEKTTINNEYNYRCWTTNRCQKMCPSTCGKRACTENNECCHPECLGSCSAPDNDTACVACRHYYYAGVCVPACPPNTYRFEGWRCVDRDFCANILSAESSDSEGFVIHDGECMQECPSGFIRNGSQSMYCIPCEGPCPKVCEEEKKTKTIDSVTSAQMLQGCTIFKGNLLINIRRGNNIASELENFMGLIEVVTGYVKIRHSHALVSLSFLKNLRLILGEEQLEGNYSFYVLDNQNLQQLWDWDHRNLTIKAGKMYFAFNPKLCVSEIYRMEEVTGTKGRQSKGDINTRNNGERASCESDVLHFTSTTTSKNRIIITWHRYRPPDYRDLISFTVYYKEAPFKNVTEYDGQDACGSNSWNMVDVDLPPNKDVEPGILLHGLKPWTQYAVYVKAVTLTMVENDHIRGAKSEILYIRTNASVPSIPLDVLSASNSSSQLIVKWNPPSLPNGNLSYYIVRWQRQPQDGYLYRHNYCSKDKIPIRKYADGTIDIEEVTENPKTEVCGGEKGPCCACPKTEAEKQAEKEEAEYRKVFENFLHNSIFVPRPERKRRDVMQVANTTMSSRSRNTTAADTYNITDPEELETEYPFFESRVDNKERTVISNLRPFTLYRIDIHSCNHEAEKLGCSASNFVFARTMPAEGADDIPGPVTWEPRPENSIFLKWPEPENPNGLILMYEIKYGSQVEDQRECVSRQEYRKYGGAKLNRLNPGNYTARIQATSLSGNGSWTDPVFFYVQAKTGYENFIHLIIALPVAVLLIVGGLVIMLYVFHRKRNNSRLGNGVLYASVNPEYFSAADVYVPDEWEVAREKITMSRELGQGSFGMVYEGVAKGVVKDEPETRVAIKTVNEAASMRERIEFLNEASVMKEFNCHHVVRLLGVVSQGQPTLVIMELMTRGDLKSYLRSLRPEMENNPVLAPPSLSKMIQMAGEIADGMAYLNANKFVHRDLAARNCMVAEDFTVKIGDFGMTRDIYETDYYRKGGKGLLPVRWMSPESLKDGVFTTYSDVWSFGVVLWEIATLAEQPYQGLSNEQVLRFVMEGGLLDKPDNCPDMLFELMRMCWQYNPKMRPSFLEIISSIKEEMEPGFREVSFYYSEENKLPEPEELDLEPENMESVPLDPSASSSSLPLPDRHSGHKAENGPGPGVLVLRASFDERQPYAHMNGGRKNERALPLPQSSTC

C=CC(=O)Nc1cc(C)cc(-n2c(=O)cc(C)c3cnc(Nc4ccc(N5CCN(C)CC5)cc4OC)nc32)c1 [YL143, N‐(3‐(2‐((2‐Methoxy‐4‐(4‐methylpiperazin‐1‐yl)phenyl)amino)‐5‐methyl‐7‐oxopyrido [2,3‐d]pyrimidin‐8(7H)‐yl)‐5‐methylphenyl)acrylamide]
IC50 (IGF1R): > 1000 nM
IC50 [1]: 21.1 ± 9.9 nM
IC50 (A549 (EGFR^WT) cells): > 1000 nM
IC50 (CSF1R): > 10000 nM
IC50 (TRKA): > 10000 nM
TUNEL stain of the tumor tissue (H1975 xenograft; 18 days): induced apoptosis
antitumor efficacy (H1975 xenograft; 18 days): promising antitumor efficacy; also recorded: comparable in vivo antitumor effect to that of CO1686
tolerability (mortality, body weight) (H1975 xenograft; 18 days): well tolerated; also recorded: without significantly toxic signs
hyperglycemia side effect (blood glucose) (H1975 xenograft; day 7 and 14, compared with CO1686): weaker hyperglycemia side effect
phosphorylation of EGFR and Erk [2]: dose‐dependently inhibited
IC50 (EGFR^L858R/T790M; AV ± SD, 1.5 h incubation): 2 ± 0.3 nM
potency factor over CO1686 and osimertinib on EGFR^L858R/T790M (EGFR^L858R/T790M; parallel comparison): 5–7
